How the values were obtained:
[1] = molecular target: T1, Estrogen receptor beta (Homo sapiens, UniProt Q92731)
[2] = molecular target: T2, Estrogen receptor (Homo sapiens, UniProt P03372)
T2 sequence (P03372 whole entry): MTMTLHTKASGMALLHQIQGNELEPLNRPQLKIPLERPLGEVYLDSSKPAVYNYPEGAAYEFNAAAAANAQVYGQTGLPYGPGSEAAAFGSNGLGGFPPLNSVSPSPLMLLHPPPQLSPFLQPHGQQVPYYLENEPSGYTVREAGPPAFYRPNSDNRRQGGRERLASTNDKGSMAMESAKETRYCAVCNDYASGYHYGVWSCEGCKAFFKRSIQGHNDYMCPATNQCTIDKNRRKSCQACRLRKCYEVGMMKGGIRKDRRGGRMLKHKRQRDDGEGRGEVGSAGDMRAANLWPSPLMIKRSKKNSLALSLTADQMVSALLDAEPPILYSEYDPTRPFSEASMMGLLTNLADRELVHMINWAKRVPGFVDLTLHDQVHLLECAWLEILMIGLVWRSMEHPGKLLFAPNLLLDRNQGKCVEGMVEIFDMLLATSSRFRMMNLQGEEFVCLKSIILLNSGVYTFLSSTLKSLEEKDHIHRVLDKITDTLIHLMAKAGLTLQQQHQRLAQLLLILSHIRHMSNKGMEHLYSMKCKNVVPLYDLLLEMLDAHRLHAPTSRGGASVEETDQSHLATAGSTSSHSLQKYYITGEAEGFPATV

[3] = molecular target: T2, Estrogen receptor; test: Displacement of [3H]17-beta-estradiol from Estrogen receptor alpha of bacterial lysate by scintillation proximity assay (SPA) at 10e-5 M; Inactive
[4] = molecular target: T1, Estrogen receptor beta; test: Displacement of [3H]17-beta-estradiol from Estrogen receptor beta of bacterial lysate by scintillation proximity assay (SPA) at 10e-5 M; Inactive

T1 sequence (Q92731 whole entry): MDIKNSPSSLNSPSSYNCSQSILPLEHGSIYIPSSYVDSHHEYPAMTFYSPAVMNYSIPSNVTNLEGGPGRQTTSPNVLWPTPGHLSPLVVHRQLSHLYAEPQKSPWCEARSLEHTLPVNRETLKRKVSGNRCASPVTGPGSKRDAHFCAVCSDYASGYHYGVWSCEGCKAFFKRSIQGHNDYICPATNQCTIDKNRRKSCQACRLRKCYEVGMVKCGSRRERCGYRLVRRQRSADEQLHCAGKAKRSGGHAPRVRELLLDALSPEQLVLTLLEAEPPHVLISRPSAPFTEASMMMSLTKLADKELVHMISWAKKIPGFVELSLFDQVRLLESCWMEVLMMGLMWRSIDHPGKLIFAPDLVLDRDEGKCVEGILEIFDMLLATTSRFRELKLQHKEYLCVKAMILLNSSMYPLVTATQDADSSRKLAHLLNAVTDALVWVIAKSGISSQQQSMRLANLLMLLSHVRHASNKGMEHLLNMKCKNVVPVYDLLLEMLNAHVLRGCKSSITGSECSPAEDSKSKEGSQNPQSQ

| SMILES | Ki [1] [nM] | Ki [2] [nM] | Ki [3] | Ki [4] |
| --- | --- | --- | --- | --- |
| CCCN(Cc1ccccn1)c1cc(-c2ccccc2)cc(-c2ccc(O)cc2)n1 | 710 | 180 | – | – |
| Cc1ccccc1-c1cc(-c2ccc(O)cc2)nc(N(C)CCc2ccccc2)c1 | 1100 | 650 | – | – |
| CCCN(Cc1ccccn1)c1cc(-c2ccccc2)cc(-c2ccc(O)cc2C)n1 | – | – | Not Active | Not Active |
| Cc1cc(-c2cc(-c3ccccc3)cc(N(C)CCN(C)C)n2)ccc1O | – | – | Not Active | Not Active |
| CCCN(Cc1ccccn1)c1cc(-c2ccccc2)cc(-c2ccc(O)c(C)c2)n1 | 330 | 70 | – | – |
| CN(CCc1ccccc1)c1cc(-c2ccccc2)cc(-c2ccc(O)cc2)n1 | 1050 | 490 | – | – |
| Cc1cc(-c2cc(-c3ccccc3)cc(N(CCc3ccccc3)Cc3ccccc3)n2)ccc1O | 250 | 130 | – | – |
| Cc1cc(-c2cc(-c3ccccc3)cc(N(C)Cc3cccc4ccccc34)n2)ccc1O | 1410 | 450 | – | – |
| Cc1cc(-c2cc(-c3ccccc3)cc(N(C)CC(C)C)n2)ccc1O | 660 | 210 | – | – |
| CCCCN(C)c1cc(-c2ccccc2)cc(-c2ccc(O)c(C)c2)n1 | 790 | 660 | – | – |
| Cc1cc(-c2cc(-c3ccccc3)cc(N(C)CCc3ccccc3)n2)ccc1O | 680 | 160 | – | – |
| Cc1cc(-c2cc(-c3ccccc3)cc(N3CCC(Cc4ccccc4)CC3)n2)ccc1O | 110 | 20 | – | – |
| CN(CCc1ccccc1)c1cc(-c2ccc(O)cc2)cc(-c2ccc(O)cc2)n1 | > 3000 | > 3000 | – | – |
| Cc1cc(-c2cc(-c3ccccc3)cc(N3CCCC3)n2)ccc1O | – | – | Not Active | Not Active |
| Cc1cc(-c2cc(-c3ccccc3)cc(N(C)Cc3ccccc3)n2)ccc1O | 1120 | 380 | – | – |
| Cc1cc(-c2cc(-c3ccccc3)cc(N(C)CCc3ccccn3)n2)ccc1O | > 3000 | 1260 | – | – |
| CC(C)CN(C)c1cc(-c2ccccc2)cc(-c2ccc(O)cc2)n1 | 1260 | 620 | – | – |
| CCOCCN(CCOCC)c1cc(-c2ccccc2)cc(-c2ccc(O)c(C)c2)n1 | 1170 | 2000 | – | – |
| CCN(Cc1ccncc1)c1cc(-c2ccccc2)cc(-c2ccc(O)c(C)c2)n1 | 1000 | 830 | – | – |

Source: ChEMBL document CHEMBL1133877, “2-Amino-4,6-diarylpyridines as novel ligands for the estrogen receptor” (Bioorg Med Chem Lett, 2001)
